One data set concerns the target serotonin 2 receptor (Rattus norvegicus, UniProt P14842). Nature of the data set: Binding test on [3H] ketanserin (serotonin 2 receptor). To be noted: [3H] ketanserin 0.3 nM, receptor fraction of rat cerebral cortex; read-out: 5HT2.
The target of a further data set is T1, serotonin 1A receptor (Rattus norvegicus, UniProt P19327).
T1 construct: To the receptor fraction of the hippocampus were added a test compound and 0.5 nM of [^3H]; 8-hydroxy-dipropylaminotetralin; from tissue; host or cells: SD rat hippocampus, membrane (receptor) fraction
T1 sequence (P19327 1-422): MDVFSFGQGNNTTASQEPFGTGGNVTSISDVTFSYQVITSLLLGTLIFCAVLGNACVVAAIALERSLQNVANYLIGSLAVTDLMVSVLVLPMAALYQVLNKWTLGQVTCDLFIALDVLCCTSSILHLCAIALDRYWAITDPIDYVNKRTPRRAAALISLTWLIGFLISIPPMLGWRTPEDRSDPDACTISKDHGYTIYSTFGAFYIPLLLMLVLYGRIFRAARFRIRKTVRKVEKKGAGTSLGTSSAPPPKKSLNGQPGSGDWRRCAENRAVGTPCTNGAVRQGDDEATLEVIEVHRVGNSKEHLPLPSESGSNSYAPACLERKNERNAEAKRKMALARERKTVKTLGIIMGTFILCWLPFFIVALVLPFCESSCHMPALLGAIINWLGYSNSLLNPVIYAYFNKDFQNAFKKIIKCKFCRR
The data set can be described thus: Binding test on [3H] 8-hydroxy-dipropylaminotetralin (serotonin 1A receptor). Particulars: [3H] 8-OH-DPAT 0.5 nM, receptor fraction of rat hippocampus; read-out: 5HT1a.

For a further data set, the target named is α1 adrenalin receptor. Nature of the data set: Binding test on [3H] prazosin (α1 adrenalin receptor). Also on record: species or system rat. Particulars: [3H] prazosin about 0.2 nM, receptor fraction of rat cerebral cortex.

We go through eleven compounds from US6579881B2 (Eisai Co., Ltd., priority 1997, dated 2003).

In general, melting point refers to the temperature, or range, at which the solid turns liquid.

Sequence of serotonin 2 receptor (P14842 whole entry): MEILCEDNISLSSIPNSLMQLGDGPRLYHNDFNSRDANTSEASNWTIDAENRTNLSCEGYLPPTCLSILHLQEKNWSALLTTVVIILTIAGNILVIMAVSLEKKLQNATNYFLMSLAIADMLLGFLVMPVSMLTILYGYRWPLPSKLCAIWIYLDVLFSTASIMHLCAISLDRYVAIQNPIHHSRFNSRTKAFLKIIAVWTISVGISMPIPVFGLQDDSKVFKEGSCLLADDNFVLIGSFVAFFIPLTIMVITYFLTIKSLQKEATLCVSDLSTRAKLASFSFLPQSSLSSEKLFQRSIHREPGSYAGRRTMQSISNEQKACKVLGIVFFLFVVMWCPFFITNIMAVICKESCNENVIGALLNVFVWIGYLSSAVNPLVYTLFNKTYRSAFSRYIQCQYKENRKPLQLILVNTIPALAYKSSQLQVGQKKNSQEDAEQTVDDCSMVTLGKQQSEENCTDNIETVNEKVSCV

For the compound `CC(=O)NCc1ccc2ccn(C3CCN(CCc4cccc(F)c4)CC3)c2c1` [Example 350, 1-[1-(3-fluorophenethyl)piperidin-4-yl]-6-acetamidomethylindole], the melting point was 134 to 135 °C. For the same compound, at serotonin 2 receptor, the Ki was found to be 11.4 nM. In addition, on serotonin 1A receptor, the Ki was 1.92 nM. This compound also returned a Ki on α1 adrenalin receptor of 123 nM.

`CCCS(=O)(=O)NCc1ccc2ccn(C3CCN(CCc4ccc(F)cc4)CC3)c2c1` [Example 324, 1-[1-(4-fluorophenethyl)piperidin-4-yl]-6-n-propylsulfonamidomethylindole] came in with a melting point of 80 to 81 °C. Further, the Ki at serotonin 2 receptor is greater than 20 nM. For the same compound, the Ki on serotonin 1A receptor turned out to be 0.1 nM. Further, the Ki on α1 adrenalin receptor came out at 60.9 nM.

Turning to `CN(C)C(=O)NCc1ccc2ccn(C3CCN(CCc4ccc(F)cc4)CC3)c2c1` [Example 385, 1-[1-(4-fluorophenethyl)piperidin-4-yl]-6-N,N-dimethylaminocarbonylaminomethylindole], the melting point was 115 to 116 °C. Also, the Ki on serotonin 2 receptor was found to be 0.97 nM. Moreover, at serotonin 1A receptor, the Ki was found to be 2.41 nM. At α1 adrenalin receptor, the Ki is 21.6 nM.

Consider `CS(=O)(=O)NCc1ccc2ccn(C3CCN(CCc4ccc(F)cc4)CC3)c2c1` [Example 322, 1-[1-(4-fluorophenethyl)piperidin-4-yl]-6-methanesulfonamidomethylindole], for which the melting point fell in the range of 121 to 122 °C. For the same compound, the Ki at serotonin 2 receptor came out at 30.4 nM. For the same compound, on serotonin 1A receptor, the Ki came to 0.08 nM. Also, at α1 adrenalin receptor, the Ki came to 41.3 nM.

Regarding `O=C(NCc1ccc2ccn(C3CCN(CCc4ccc(F)cc4)CC3)c2c1)C1CC1` [Example 363, 1-[1-(4-fluorophenethyl)piperidin-4-yl]-6-cyclopropanecarboxamidomethylindole], the melting point lay in the range of 116 to 117 °C. Further, the Ki at serotonin 2 receptor came to 3.39 nM. Also, the Ki on serotonin 1A receptor came to 1.5 nM. The same compound had a Ki at α1 adrenalin receptor of 106 nM.

The compound `O=S(=O)(CCCCl)NCc1ccc2ccn(C3CCN(CCc4ccc(F)cc4)CC3)c2c1` [Example 325, 1-[1-(4-fluorophenethyl)piperidin-4-yl]-6-(3-chloropropyl)sulfonamidomethylindole] came in with a melting point of 143 to 145 °C. Besides, on serotonin 2 receptor, the Ki is 10.9 nM. For the same compound, the Ki on serotonin 1A receptor is 0.65 nM. Also, the Ki at α1 adrenalin receptor was found to be 47 nM.

For the compound `O=C(Cc1ccc2ccn(C3CCN(CCc4ccc(F)cc4)CC3)c2c1)NCCO` [Example 300, 1-[1-(4-fluorophenethyl)piperidin-4-yl]-6-(2-hydroxyethyl)carbamoylmethylindole], the melting point lay in the range of 140 to 141.2 °C. Further, on serotonin 2 receptor, the Ki was determined as 3.55 nM. Moreover, the Ki at serotonin 1A receptor came out at 1.73 nM. The compound further came in with a Ki on α1 adrenalin receptor of 225 nM.

In turn, `O=C(CF)NCc1ccc2ccn(C3CCN(CCc4ccc(F)cc4)CC3)c2c1` [Example 366, 1-[1-(4-fluorophenethyl)piperidin-4-yl]-6-fluoroacetamidomethylindole] showed a melting point of 106 to 108 °C. In addition, the Ki on serotonin 2 receptor was 2.05 nM. For the same compound, on serotonin 1A receptor, the Ki amounted to 0.48 nM. Further, at α1 adrenalin receptor, the Ki came out at 74.6 nM.

`CCNC(=O)Cc1ccc2ccn(C3CCN(CCc4ccccc4F)CC3)c2c1` [Example 344, 1-[1-(2-fluorophenethyl)piperidin-4-yl]-6-ethylcarbamoylmethylindole] came in with a melting point of 147 to 148.6 °C. At serotonin 2 receptor, the Ki turned out to be 1.64 nM. For the same compound, the Ki at serotonin 1A receptor turned out to be 1.78 nM. Besides, the Ki on α1 adrenalin receptor was 74.9 nM.

As for `CC(C)C(=O)NCc1ccc2ccn(C3CCN(CCc4ccc(F)cc4)CC3)c2c1` [Example 354, 1-[1-(4-fluorophenethyl)piperidin-4-yl]-6-isobutyrylaminomethylindole], the melting point lay within 97 to 98 °C. Besides, at serotonin 2 receptor, the Ki was determined as 4.79 nM. Besides, the Ki at serotonin 1A receptor turned out to be 1.22 nM. The Ki at α1 adrenalin receptor worked out at 90.5 nM.

`CNC(=O)Cc1ccc2ccn(C3CCN(CCc4ccccc4F)CC3)c2c1` [Example 342, 1-[1-(2-fluorophenethyl)piperidin-4-yl]-6-methylcarbamoylmethylindole] yielded a melting point of 136.5 to 137.4 °C. The Ki on serotonin 2 receptor worked out at 38.1 nM. Further, the Ki at serotonin 1A receptor worked out at 0.65 nM. This compound also yielded a Ki on α1 adrenalin receptor of 25 nM.
